# US20090074666A1 (priority 2005, published 2009)
# Read-outs that look alike come from different tables or passages of the source.
# Legend:
# [1] = system: serum antibodies of test subjects (anti-human IgG detection); experiment: ELISA of serum antibodies on maleimide-activated plates; assay type: binding; details: Cys-conjugate on maleimide plate
# Description: Peptides containing cysteine were bound through the cysteine sulfhydryl group to maleimide activated plates (Reacti-Bind™ Maleimide activated plates, Pierce).
# One hundred microliters of the peptide solution (0.5 nmol of peptide) was added to each well and allowed to react overnight at +4° C.
# The unreacted maleimide groups were blocked with 2-mercaptoethanol: 150 μl of 1 mM 2-mercaptoethanol in 10 mM sodium phosphate/0.15 M NaCl/2 mM EDTA, pH 7.2 was added to each well and allowed to react for 1 hour at RT.
# The serum obtained from person nr. […] Control wells contained no peptide but both 2-mercaptoethanol and BSA blockings were employed. All incubations were performed in duplicates.
# [2] = system: serum antibodies of test subjects (anti-human IgG detection); details: N-terminal biotin conjugate on streptavidin plate
# Description: Biotinylated peptides were bound to streptavidin-coated plates (Pierce).
# The peptides sequences were as follows: • Biotin-aminohexanoyl-PWVRGV (custom product, CSS, Edinburgh, Scotland) • Biotin-aminohexanoyl-SYACKR (custom product, CSS, Edinburgh, Scotland) • Biotin-aminohexanoyl-SKAYSNC (custom product, CSS, Edinburgh, Scotland)
# Prior to peptide immobilization, plates were blocked with 150 μl of 0.5% BSA in 10 mM sodium phosphate/0.15 M NaCl/0.05% Tween-20, pH 7.2, for 1.5 h at RT. The plate was then washed three times with 10 mM sodium phosphate/0.15 M NaCl/0.05% Tween-20, pH 7.2.
# Peptides were dissolved in 10 mM sodium phosphate/0.15 M NaCl, pH 7.2, to a concentration of 0.5 nmol/ml. One hundred microliters of the peptide solutions (50 pmol of the peptide) were added to the wells and allowed to react overnight at +4° C. The plates were then washed four times with 10 mM sodium phosphate/0.15 M NaCl/0.05% Tween-20/0.2% BSA, pH 7.2 (washing buffer).
# Serum was obtained from six healthy individuals (29-44 years of age), and dilutions 1:10, 1:100 and 1:1000 were prepared from all but one serum sample in the washing buffer. The serum obtained from person nr. 5 was instead diluted 1:25, 1:250 and 1:2500 in the washing buffer. One hundred microliters of each serum sample was added to the wells and incubated for 60 mins at RT. […] All incubations were performed in duplicates.
# After serum incubation the plate was washed with the washing buffer 8 times with at least 5 min incubation period between change of the washing liquid.
# The bound serum antibodies were quantitated by adding anti-human IgG (rabbit)—HRP conjugate (Sigma) in 1:30000 dilution to each well. After one hour incubation at RT, the plate was washed five times with the washing buffer. One hundred microliters of TMB+ color reagent (Dako Cytomation) was then added. The absorbance was read at 650 nm after 15 mins. Immediately after this measurement 100 μl of 1 M sulphuric acid was added and the absorbance read at 450 nm.
# A/X31, A/Aichi/3/75 H3N2 = assay type: binding, human influenza virus A; parameters: key: “+” = binding; “−” = no binding; “(+)” = trace binding
# A/Shangdong/9/93 H3N2 = assay type: binding, human influenza virus A; parameters: key: “+” = binding; “−” = no binding; “(+)” = trace binding
# A/Taiwan/1/86 H1N1 = assay type: binding, human influenza virus A; parameters: key: “+” = binding; “−” = no binding; “(+)” = trace binding
# A/New Caledonia/20/99 = assay type: binding, human influenza virus A; parameters: key: “+” = binding; “−” = no binding; “(+)” = trace binding
# A/Kiev/301/94 H3N2 = assay type: binding, human influenza virus A; parameters: key: “+” = binding; “−” = no binding; “(+)” = trace binding
# A/2/Japan/305/57 H2N2 = assay type: binding, human influenza virus A; parameters: key: “+” = binding; “−” = no binding; “(+)” = trace binding
# A/PR/8/34 H1N1 = assay type: binding, human influenza virus A; parameters: key: “+” = binding; “−” = no binding; “(+)” = trace binding
# A/Beijing/262/95 H1N1 = assay type: binding, human influenza virus A; parameters: key: “+” = binding; “−” = no binding; “(+)” = trace binding
# [3] = system: human influenza virus A strains; assay type: binding
substance,measurement,setting,value
Biotin-aminohexanoyl-SKAYSNC [Peptide 1],Approximate immune reactions of sera against synthetic peptides,[1]; Serum 1,weakly or non-reactive
same,Approximate immune reactions of sera against synthetic peptides,[1]; Serum 2,reacted
same,Approximate immune reactions of sera against synthetic peptides,[1]; Serum 3,reacted
same,Approximate immune reactions of sera against synthetic peptides,[1]; Serum 4,reacted
same,Approximate immune reactions of sera against synthetic peptides,[1]; Serum 5,weakly or non-reactive
same,Approximate immune reactions of sera against synthetic peptides,[1]; Serum 6,strongest
same,Approximate immune reactions of sera against synthetic peptides,"[2]; Serum 1, listed as Biotin-aminohexanoic-SKAYSNC",weakly or non-reactive
same,Approximate immune reactions of sera against synthetic peptides,"[2]; Serum 3, listed as Biotin-aminohexanoic-SKAYSNC",strongest immune response
same,Approximate immune reactions of sera against synthetic peptides,"[2]; Serum 4, listed as Biotin-aminohexanoic-SKAYSNC",strongest immune response
same,Approximate immune reactions of sera against synthetic peptides,"[2]; Serum 5, listed as Biotin-aminohexanoic-SKAYSNC",weakly or non-reactive
same,Approximate immune reactions of sera against synthetic peptides,"[2]; Serum 6, listed as Biotin-aminohexanoic-SKAYSNC",weakly or non-reactive
Biotin-aminohexanoyl-SYACKR [Peptide 2],Approximate immune reactions of sera against synthetic peptides,[1]; Serum 5,weaker
same,Approximate immune reactions of sera against synthetic peptides,[1]; Serum 6,strongest response
same,Approximate immune reactions of sera against synthetic peptides,"[2]; Serum 1, listed as Biotin-aminohexanoic-SYACKR",weakest reaction
same,Approximate immune reactions of sera against synthetic peptides,"[2]; Serum 2, listed as Biotin-aminohexanoic-SYACKR",strongest immune response
same,Approximate immune reactions of sera against synthetic peptides,"[2]; Serum 5, listed as Biotin-aminohexanoic-SYACKR",strongest immune response
Globoside,Binding of influenza virus strain to glycolipids,"A/X31, A/Aichi/3/75 H3N2",−
same,Binding of influenza virus strain to glycolipids,A/Shangdong/9/93 H3N2,−
same,Binding of influenza virus strain to glycolipids,A/Taiwan/1/86 H1N1,−
same,Binding of influenza virus strain to glycolipids,A/New Caledonia/20/99,−
same,Binding of influenza virus strain to glycolipids,A/Kiev/301/94 H3N2,−
same,Binding of influenza virus strain to glycolipids,A/2/Japan/305/57 H2N2,−
same,Binding of influenza virus strain to glycolipids,A/PR/8/34 H1N1,−
same,Binding of influenza virus strain to glycolipids,A/Beijing/262/95 H1N1,−
Neu5Acα2-3Galβ1-4GlcNAcβ1-3(Neu5Acα2-3Galβ1-4GlcNAcβ1-6)Galβ1-4Glc [Oligosaccharide 9],"activity on solid phase, in words",[3],active especially when presented in polyvalent form on a solid phase
